For test [1], the target named is T1, Brd4 bromodomain 1 (BRD4(1)) (Homo sapiens, UniProt O60885).
T1 construct: made in house; host or cells: E. coli BL21(DE3)
The test can be described thus: Inhibition of tetra-acetylated histone H4 binding to Brd4 bromodomain 1 (TR-FRET). Conditions: tetra-acetylated histone H4 peptide, first bromodomain of Brd4. As to the method: Proteins were cloned and overexpressed with a N-terminal 6× His tag, then purified by nickel affinity followed by size exclusion chromatography. Briefly, E.coli BL21(DE3) cells were transformed with a recombinant expression vector encoding N-terminally Nickel affinity tagged bromodomains from Brd2, Brd3, Brd4. Cell cultures were incubated at 37° C. with shaking to the appropriate density and induced overnight with IPTG. The supernatant of lysed cells was loaded onto Ni-IDA column for purification. Eluted protein was pooled, concentrated and further purified by size exclusion chromatography. Fractions representing monomeric protein were pooled, concentrated, aliquoted, and frozen at −80° C. for use in subsequent experiments.
Binding of tetra-acetylated histone H4 and BET bromodomains was confirmed by a Time Resolved Fluorescence Resonance Energy Transfer (TR-FRET) method. N-terminally His-tagged bromodomains (200 nM) and biotinylated tetra-acetylated histone H4 peptide (25-50 nM, Millipore) were incubated in the presence of Europium Cryptate-labeled streptavidin (Cisbio Cat. #610SAKLB) and XL665-labeled monoclonal anti-His antibody (Cisbio Cat. #61HISXLB) in a white 96 well microtiter plate (Greiner). For inhibition assays, serially diluted test compound was added to these reactions in a 0.2% final concentration of DMSO. Final buffer concentrations were 30 mM HEPES pH 7.4, 30 mM NaCl, 0.3 mM CHAPS, 20 mM phosphate pH 7.0, 320 mM KF, 0.08% BSA). After a 2-h incubation at room temperature, the fluorescence by FRET was measured at 665 and 620 nm by a SynergyH4 plate reader (Biotek). The binding inhibitory activity was shown by a decrease in 665 nm fluorescence relative to 620 nm. IC50 values were determined from a dose response curve.

A further test relates to human AML MV-4-11 cells. As to the kind of experiment: Inhibition of cell proliferation in MV4-11 cells (CellTiter Aqueous One). Particulars: for Cell Proliferation activity: 72 h; for IC50: MV4-11, 72 h. The class given is cell-based. As to the method: MV4-11 cells: 96-well plates were seeded with 5×10^4 cells per well of exponentially growing human AML MV-4-11 (CRL-9591) cells and immediately treated with two-fold dilutions of test compounds, ranging from 30 μM to 0.2 μM. Triplicate wells were used for each concentration, as well as a media only and three DMSO control wells. The cells and compounds were incubated at 37° C., 5% CO2 for 72 h before adding 20 μL of the CellTiter Aqueous One Solution (Promega) to each well and incubating at 37° C., 5% CO2 for an additional 3-4 h. The absorbance was taken at 490 nm in a spectrophotometer and the percentage of proliferation relative to DMSO-treated cells was calculated after correction from the blank well. IC50 were calculated using the GraphPad Prism software.

The subject of the next test is c-myc. The test can be described thus: Inhibition of c-myc expression (mRNA, real-time PCR) in MV4-11 cells. The class given is cell-based. Conditions: Human AML MV4-11 cells, 3 h, cMYC mRNA. As to the method:
MV4-11 cells (CRL-9591) were plated at a density of 2.5×10^4 cells per well in 96 well U-bottom plates and treated with increasing concentrations of test compound or DMSO (0.1%) in IMDM media containing 10% FBS and penicillin/streptomycin, and incubated for 3 h at 37° C. Triplicate wells were used for each concentration. Cells were pelleted by centrifugation and harvested using the mRNA Catcher PLUS kit according to manufacturer's instructions. The eluted mRNA isolated was then used in a one-step quantitative real-time PCR reaction, using components of the RNA UltraSense™ One-Step Kit (Life Technologies) together with Applied Biosystems TaqMan® primer-probes for cMYC and Cyclophilin. Real-time PCR plates were run on a VIaTM7 real time PCR machine (Applied Biosystems), data was analyzed, normalizing the Ct values for cMYC to an internal control, prior to determining the fold expression of each sample, relative to the control.

Bounds are passed on as bounds.

What is called IC50 is the concentration at which inhibition is half-maximal.

In the case of `Cc1noc(C)c1-c1cc2c([nH]c1=O)c(C)nn2Cc1ccc(F)cc1` [Example Compound 25, 6-(3,5-dimethylisoxazol-4-yl)-1-(4-fluorobenzyl)-3-methyl-1H-pyrazolo[4,3-b]pyridin-5(4H)-one], the IC50 in test [1] lay within 3000 to 30000 nM. Besides, in the test on human AML MV-4-11 cells, the “Cell Proliferation activity” value is reported as “Not active”.
For `Cc1noc(C)c1-c1cnc2ncn(Cc3ccccn3)c2c1` [Example Compound 47, 3,5-dimethyl-4-(1-(pyridin-2-ylmethyl)-1H-imidazo[4,5-b]pyridin-6-yl)isoxazole], in that order: 3000 to 30000 nM and “Not active”.
For `Cc1noc(C)c1-c1ccc2[nH]cc(Nc3cccc(C#N)c3)c2n1` [Example Compound 57, 3-((5-(3,5-dimethylisoxazol-4-yl)-1H-pyrrolo[3,2-b]pyridin-3-yl)amino)benzonitrile], the IC50 (in test [1]; in the test with human AML MV-4-11 cells) was 3000 to 30000 nM throughout.
Take `CCOc1nc2ncc(-c3c(C)noc3C)cc2n1Cc1ccccc1` [Example Compound 59, 4-(1-benzyl-2-ethoxy-1H-imidazo[4,5-b]pyridin-6-yl)-3,5-dimethylisoxazole]: the IC50 in test [1] is 300 to 3000 nM. The “Cell Proliferation activity” value with human AML MV-4-11 cells is recorded as “Not active”.
The like results for `CC(=O)Oc1nc2ncn(Cc3ccc(F)cc3)c2cc1-c1c(C)noc1C` [compound 80, 6-(3,5-dimethylisoxazol-4-yl)-1-(4-fluorobenzyl)-1H-imidazo[4,5-b]pyridin-5-yl acetate] were, in that order, 300 to 3000 nM and “Not active”.
On to `Cc1noc(C)c1-c1cc(N)c2[nH]c(=O)n(Cc3ccc(Cl)cc3)c2c1` [compound 90, 4-amino-1-(4-chlorobenzyl)-6-(3,5-dimethylisoxazol-4-yl)-1H-benzo[d]imidazol-2(3H)-one], for which the IC50 is at most 300 nM in test [1], at most 300 nM in the test on c-myc and 300 to 3000 nM in the test on human AML MV-4-11 cells.
`COc1ccc(Cn2c(=O)[nH]c3c(N)cc(-c4c(C)noc4C)cc32)cc1` [compound 104, 4-amino-6-(3,5-dimethylisoxazol-4-yl)-1-(4-methoxybenzyl)-1H-benzo[d]imidazol-2(3H)-one]: the results for the IC50 (in test [1]; in the test on c-myc; in the test with human AML MV-4-11 cells) were at most 300 nM, 300 to 3000 nM and 300 to 3000 nM, respectively.
As to `CCNc1nc2ncc(-c3c(C)noc3C)cc2n1Cc1ccccc1` [compound 107, 1-benzyl-6-(3,5-dimethylisoxazol-4-yl)-N-ethyl-1H-imidazo[4,5-b]pyridin-2-amine], the half-maximal inhibitory concentration (IC50) in test [1] is at most 300 nM; in the test with human AML MV-4-11 cells, 300 to 3000 nM.
`Cc1noc(C)c1-c1cc([N+](=O)[O-])c2[nH]c(=O)n(C(C)c3ccccc3)c2c1` (stereo not drawn) [compound 110, 6-(3,5-dimethylisoxazol-4-yl)-4-nitro-1-(1-phenylethyl)-1H-benzo[d]imidazol-2(3H)-one]: the IC50 in test [1] is at most 300 nM; in the test with c-myc, 300 to 3000 nM; in the test on human AML MV-4-11 cells it was 300 to 3000 nM.
Regarding `CCOc1nc2c(NC(C)=O)cc(-c3c(C)noc3C)cc2n1Cc1ccccc1` [compound 120, N-(1-benzyl-6-(3,5-dimethylisoxazol-4-yl)-2-ethoxy-1H-benzo[d]imidazol-4-yl)acetamide], the IC50 was at most 300 nM in test [1], 300 to 3000 nM with c-myc and 300 to 3000 nM with human AML MV-4-11 cells.
Regarding `Cc1noc(C)c1-c1cc(N)c2[nH]c(=O)n(CC3CC3)c2c1` [compound 161, 4-amino-1-(cyclopropylmethyl)-6-(3,5-dimethylisoxazol-4-yl)-1H-benzo[d]imidazol-2(3H)-one], the IC50 is at most 300 nM in test [1] and 300 to 3000 nM in the test on human AML MV-4-11 cells.
As to `Cc1noc(C)c1-c1cc(Br)c2nc(C)n(C(=O)c3ccccc3)c2c1` [compound 200, (4-bromo-6-(3,5-dimethylisoxazol-4-yl)-2-methyl-1H-benzo[d]imidazol-1-yl)(phenyl)methanone], in test [1], the IC50 was in the range of 300 to 3000 nM. The “Cell Proliferation activity” value in the test with human AML MV-4-11 cells is listed as “Not active”.
Regarding `Cc1nc2ncc(-c3cnnn3C)cc2n1Cc1ccccc1` [compound 206, 1-benzyl-2-methyl-6-(1-methyl-1H-1,2,3-triazol-5-yl)-1H-imidazo[4,5-b]pyridine], the IC50 in test [1] was at most 300 nM; with human AML MV-4-11 cells, 3000 to 30000 nM.

These data come from patent US10363257B2 (ZENITH EPIGENETICS LTD., priority 2013, dated 2019).
